pIC50: −log10 of the molar value.
Biological target: T1, GR (Rattus norvegicus, UniProt P06536)
T1 construct: expressed in transfected cells; host or cells: T47D/A1-2
T1 sequence (P06536 1-795): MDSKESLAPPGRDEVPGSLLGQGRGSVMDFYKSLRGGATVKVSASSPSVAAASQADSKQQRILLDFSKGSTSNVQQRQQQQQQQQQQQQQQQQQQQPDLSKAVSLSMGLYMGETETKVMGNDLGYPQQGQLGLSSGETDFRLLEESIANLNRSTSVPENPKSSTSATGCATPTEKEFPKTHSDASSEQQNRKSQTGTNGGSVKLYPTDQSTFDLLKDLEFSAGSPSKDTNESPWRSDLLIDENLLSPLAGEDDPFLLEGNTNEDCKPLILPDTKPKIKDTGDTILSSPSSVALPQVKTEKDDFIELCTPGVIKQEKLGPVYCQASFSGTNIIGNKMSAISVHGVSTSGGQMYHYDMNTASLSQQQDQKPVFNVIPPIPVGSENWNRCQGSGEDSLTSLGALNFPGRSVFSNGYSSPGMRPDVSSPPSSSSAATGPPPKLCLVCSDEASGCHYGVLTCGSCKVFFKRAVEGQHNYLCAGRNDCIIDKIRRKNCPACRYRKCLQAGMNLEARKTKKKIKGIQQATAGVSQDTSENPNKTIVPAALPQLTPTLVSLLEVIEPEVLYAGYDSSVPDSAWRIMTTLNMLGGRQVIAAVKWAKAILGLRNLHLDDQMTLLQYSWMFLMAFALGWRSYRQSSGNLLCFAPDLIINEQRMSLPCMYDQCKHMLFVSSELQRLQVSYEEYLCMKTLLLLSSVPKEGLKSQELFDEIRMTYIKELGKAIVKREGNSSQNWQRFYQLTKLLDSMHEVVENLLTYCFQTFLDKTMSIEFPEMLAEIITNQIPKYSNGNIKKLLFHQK
Assay: GR transactivation, MMTV-luciferase reporter in T47D cells
Assay type: cell-based, human
Experimental: The T47D-KBluc cells stably express an (ERE)3-luciferase reporter gene (38). Cells were maintained in phenol red-free RPMI 1640 with 2 mM L-glutamine, 1.5 g/l sodium bicarbonate, 4.5 g/l glucose, 10 mM Hepes, pH 7.5, 1 mM sodium pyruvate, 10% FBS (Atlanta Biological, Atlanta, Ga.) and antibiotics. Four days before E2 induction, the cells were switched to the above medium, with 10% 2× charcoal-dextran-treated calf serum instead of FBS. 200,000 cells/well were transferred to each well of a 24-well plate. After 24 h the indicated concentrations of the test compounds were added in DMSO and E2 was added to 20 pM. After 24 h cells were washed once in PBS, and 150 μl 1× Passive Lysis Buffer (Promega, Madison Wis.) was used to lyse the cells. Luciferase activity was determined using firefly luciferase reagents from Promega (Madison, Wis.). T47D cells stably transfected to express GR and a mouse mammary tumor virus luciferase reporter that responds to liganded GR and PR were maintained and assayed in medium containing 5 nM progesterone for PR assays, or 2.5 nM dexamethsaone for GR assays, essentially as described (39).
Reporter Gene Assays. TPSF was identified by reporter gene assays comparing the ability of ˜200 compounds structurally related to TPBM (see reference 19) to inhibit transcription of a stably transfected (ERE)3-luciferase reporter gene in T47D-KBluc breast cancer cells (20). AR was assayed in stably transfected HeLa cells and GR was assayed in stably transfected T47D cells maintained as described above. Four days before each experiment the cells were switched to medium containing CD-treated serum as described above. The HeLaAR cells were plated at 100,000 cells/well and the T47D/A1-2 and T47D-KBluc cells were plated at 200,000 cells/well in 1 ml of their respective media in 24-well plates. After 24 hours the indicated concentrations of E2, dihydrotestosterone (DHT) or dexamethasone (Dex) and DMSO vehicle, with or without TPSF, were added to each well. After 24 hours, the cells were washed once in phosphate buffered saline and lysed using 100 μl of 1× Passive Lysis Buffer (Promega, Madison Wis.). Luciferase activity was determined using BrightGlo firefly luciferase reagent from Promega (Madison, Wis.).

inhibition at 30 µM (T47D, 30 μM, 2.5 nM dexamethasone)	effect on GR transactivation (up to 20 μM, 2.5 nM dexamethasone)	pIC50 (stably transfected T47D cells, 100 nM Dex, 24 h, read-out: IC50 for inhibition of GR gene expression (MMTV-Luc))	SMILES
~35%	did not inhibit		Cn1c(=O)c2nc(CSCc3ccccc3)[nH]c2n(C)c1=O [Compound 95910, 8-Benzylsulfanylmethyl-1,3-dimethyl-3,7-dihydro-purine-2,6-dione]
		5.00	Cn1c(=S)c2[nH]c(SCCCC(=O)c3ccc(F)cc3)nc2n(C)c1=O [TPSF, Butyrophenone, p-fluoro-4-(1,2,3,6,-tetrahydro-1,3-dimethyl-2-oxo-6-thionopurin-8-ylthio)]
